Structures are written as SMILES.

In general, residual activity refers to the signal under treatment as a percentage of the control signal.

Chain of GRK7 (human) (Q8WTQ7 whole entry, looked up): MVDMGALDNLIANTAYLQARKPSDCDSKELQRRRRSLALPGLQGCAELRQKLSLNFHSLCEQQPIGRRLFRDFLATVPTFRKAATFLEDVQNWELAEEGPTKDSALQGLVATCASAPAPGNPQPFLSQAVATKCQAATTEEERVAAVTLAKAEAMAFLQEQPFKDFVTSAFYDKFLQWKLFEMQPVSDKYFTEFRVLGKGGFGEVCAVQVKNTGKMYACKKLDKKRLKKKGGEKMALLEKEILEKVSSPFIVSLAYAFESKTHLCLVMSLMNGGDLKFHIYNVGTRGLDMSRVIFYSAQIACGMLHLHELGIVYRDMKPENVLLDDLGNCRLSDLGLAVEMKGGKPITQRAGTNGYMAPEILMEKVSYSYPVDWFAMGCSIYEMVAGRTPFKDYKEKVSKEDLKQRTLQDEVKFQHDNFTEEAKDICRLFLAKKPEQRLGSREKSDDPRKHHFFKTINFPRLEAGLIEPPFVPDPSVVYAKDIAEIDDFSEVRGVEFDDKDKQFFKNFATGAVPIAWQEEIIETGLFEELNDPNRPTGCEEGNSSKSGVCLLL
Chain of CDK9 CCNT1 (human) (O60563 whole entry, looked up): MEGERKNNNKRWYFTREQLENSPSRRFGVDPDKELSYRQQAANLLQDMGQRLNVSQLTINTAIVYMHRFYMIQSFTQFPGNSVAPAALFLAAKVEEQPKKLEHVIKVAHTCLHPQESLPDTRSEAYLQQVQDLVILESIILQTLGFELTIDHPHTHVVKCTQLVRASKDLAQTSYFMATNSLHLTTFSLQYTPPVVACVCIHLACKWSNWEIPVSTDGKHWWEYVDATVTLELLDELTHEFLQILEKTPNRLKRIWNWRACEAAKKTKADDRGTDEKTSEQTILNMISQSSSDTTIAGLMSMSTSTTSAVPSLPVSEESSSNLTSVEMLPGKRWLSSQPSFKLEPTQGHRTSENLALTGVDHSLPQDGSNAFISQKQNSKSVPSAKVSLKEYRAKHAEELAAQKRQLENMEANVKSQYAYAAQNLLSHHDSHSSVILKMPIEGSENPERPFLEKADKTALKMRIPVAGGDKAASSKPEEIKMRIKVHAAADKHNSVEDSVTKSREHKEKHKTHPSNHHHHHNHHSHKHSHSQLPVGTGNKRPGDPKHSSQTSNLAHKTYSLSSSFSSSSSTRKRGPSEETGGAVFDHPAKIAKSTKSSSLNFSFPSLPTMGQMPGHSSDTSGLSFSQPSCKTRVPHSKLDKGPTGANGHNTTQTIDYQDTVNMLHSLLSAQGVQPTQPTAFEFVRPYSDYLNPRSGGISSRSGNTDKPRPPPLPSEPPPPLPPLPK
Chain of CDK9 CCNT1 (human) (P50750 whole entry, looked up): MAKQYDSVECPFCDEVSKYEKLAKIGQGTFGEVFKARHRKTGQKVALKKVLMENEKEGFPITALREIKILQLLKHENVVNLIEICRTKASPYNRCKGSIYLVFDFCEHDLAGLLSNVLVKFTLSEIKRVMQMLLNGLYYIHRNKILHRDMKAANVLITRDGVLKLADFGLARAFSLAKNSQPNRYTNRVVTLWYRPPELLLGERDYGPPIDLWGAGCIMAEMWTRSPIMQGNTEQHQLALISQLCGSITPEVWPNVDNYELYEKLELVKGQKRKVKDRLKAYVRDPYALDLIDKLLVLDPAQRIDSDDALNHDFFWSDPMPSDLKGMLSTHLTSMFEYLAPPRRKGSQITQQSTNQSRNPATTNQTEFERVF

The target of one test is FGFR1 (human) (UniProt P11362). In words: radiometric filter-binding kinase assay, Kinase HotSpot. The note with it: compound 0.5 µM; ATP 10 µM.
Chain of FGFR1 (human) (P11362 whole entry, looked up): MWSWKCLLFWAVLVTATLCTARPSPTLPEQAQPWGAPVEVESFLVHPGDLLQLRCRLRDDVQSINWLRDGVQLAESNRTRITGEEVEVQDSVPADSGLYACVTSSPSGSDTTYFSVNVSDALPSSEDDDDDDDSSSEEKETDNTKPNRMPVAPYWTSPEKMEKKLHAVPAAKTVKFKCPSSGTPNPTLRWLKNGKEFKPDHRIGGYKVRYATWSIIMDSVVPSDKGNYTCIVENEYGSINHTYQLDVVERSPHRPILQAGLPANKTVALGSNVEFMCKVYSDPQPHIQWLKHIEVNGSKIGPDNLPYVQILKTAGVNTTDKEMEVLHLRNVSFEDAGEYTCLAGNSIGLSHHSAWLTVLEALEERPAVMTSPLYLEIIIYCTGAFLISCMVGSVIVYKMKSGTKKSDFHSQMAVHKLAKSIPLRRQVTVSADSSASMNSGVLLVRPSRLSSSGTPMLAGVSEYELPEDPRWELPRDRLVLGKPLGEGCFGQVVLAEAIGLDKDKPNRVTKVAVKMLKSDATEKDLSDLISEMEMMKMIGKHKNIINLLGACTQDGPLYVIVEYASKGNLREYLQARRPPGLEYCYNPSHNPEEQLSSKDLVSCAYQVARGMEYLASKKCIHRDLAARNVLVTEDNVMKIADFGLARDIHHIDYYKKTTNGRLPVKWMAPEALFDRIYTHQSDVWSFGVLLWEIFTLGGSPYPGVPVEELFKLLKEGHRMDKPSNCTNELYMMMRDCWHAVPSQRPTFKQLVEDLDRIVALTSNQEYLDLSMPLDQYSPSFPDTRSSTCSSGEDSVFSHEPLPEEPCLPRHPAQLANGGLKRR
Take `Cn1cnc2cc3c(Nc4cccc(Br)c4)ncnc3cc21`: the residual activity was found to be 89.6%.

Consider `O=C(Nc1cccc(Nc2cc(Nc3cccc(C(F)(F)F)c3)ncn2)c1)C1CC1`, for which the residual activity worked out at 103%.

In the case of `Cc1nc2cc3nc(-c4cccs4)cnc3cc2n1C`, the residual activity worked out at 88.8%.

The next test has as its target ABL1 (human) (UniProt P00519). Described as above. The settings on record: compound 0.5 µM; ATP 10 µM.
Consider `Cn1cnc2cc3c(Nc4cccc(Br)c4)ncnc3cc21`, for which the residual activity is 32.6%.

For `O=C(Nc1cccc(Nc2cc(Nc3cccc(C(F)(F)F)c3)ncn2)c1)C1CC1`, the residual activity came out at 103%.

Regarding `Cc1nc2cc3nc(-c4cccs4)cnc3cc2n1C`, the residual activity was found to be 80.4%.

In a further test the target is MAPK9 (human) (UniProt P45984). The test is described as above. The note with it: compound 0.5 µM; ATP 10 µM.
Chain of MAPK9 (human) (P45984 whole entry, looked up): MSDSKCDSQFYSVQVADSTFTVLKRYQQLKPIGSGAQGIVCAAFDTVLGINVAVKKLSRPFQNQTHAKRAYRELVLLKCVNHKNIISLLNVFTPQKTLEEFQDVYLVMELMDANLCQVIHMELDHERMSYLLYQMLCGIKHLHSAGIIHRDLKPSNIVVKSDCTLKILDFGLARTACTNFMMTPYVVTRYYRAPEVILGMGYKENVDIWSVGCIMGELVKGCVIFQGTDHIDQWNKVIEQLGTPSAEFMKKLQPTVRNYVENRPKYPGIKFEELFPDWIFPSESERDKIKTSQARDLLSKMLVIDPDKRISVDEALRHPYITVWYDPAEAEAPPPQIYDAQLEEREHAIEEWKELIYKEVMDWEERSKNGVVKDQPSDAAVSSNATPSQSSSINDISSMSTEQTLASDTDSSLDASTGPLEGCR
For the molecule `Cn1cnc2cc3c(Nc4cccc(Br)c4)ncnc3cc21`, the residual activity stood at 92.3%.

For `O=C(Nc1cccc(Nc2cc(Nc3cccc(C(F)(F)F)c3)ncn2)c1)C1CC1`, the residual activity was 98.2%.

On to `Cc1nc2cc3nc(-c4cccs4)cnc3cc2n1C`, for which the residual activity was 74.7%.

Another test has as its target IRAK1 (human) (UniProt P51617). Described as above. The note with it: compound 0.5 µM; ATP 10 µM.
On to `Cn1cnc2cc3c(Nc4cccc(Br)c4)ncnc3cc21`, for which the residual activity worked out at 80.5%.

For `O=C(Nc1cccc(Nc2cc(Nc3cccc(C(F)(F)F)c3)ncn2)c1)C1CC1`, the residual activity was found to be 111%.

Regarding `Cc1nc2cc3nc(-c4cccs4)cnc3cc2n1C`, the residual activity amounted to 113%.

Another test concerns the target DAPK1 (human) (UniProt P53355). The test is described as above. The note with it: compound 0.5 µM; ATP 10 µM.
As to `Cn1cnc2cc3c(Nc4cccc(Br)c4)ncnc3cc21`, the residual activity is 87.2%.

As to `O=C(Nc1cccc(Nc2cc(Nc3cccc(C(F)(F)F)c3)ncn2)c1)C1CC1`, the residual activity was found to be 94.7%.

With `Cc1nc2cc3nc(-c4cccs4)cnc3cc2n1C`, the residual activity stood at 99.5%.

The target in the next test is NEK6 (human) (UniProt Q9HC98). The test is described as above. The settings on record: compound 0.5 µM; ATP 10 µM.
For the molecule `Cn1cnc2cc3c(Nc4cccc(Br)c4)ncnc3cc21`, the residual activity is 98.1%.

Turning to `O=C(Nc1cccc(Nc2cc(Nc3cccc(C(F)(F)F)c3)ncn2)c1)C1CC1`, the residual activity was 99.2%.

Take `Cc1nc2cc3nc(-c4cccs4)cnc3cc2n1C`: the residual activity came to 99.2%.

Another test concerns the target CDK9 CCNT1 (human) (UniProt P50750+O60563). The test is described as above. The settings on record: compound 0.5 µM; ATP 10 µM.
Regarding `Cn1cnc2cc3c(Nc4cccc(Br)c4)ncnc3cc21`, the residual activity was determined as 88.5%.

As for `O=C(Nc1cccc(Nc2cc(Nc3cccc(C(F)(F)F)c3)ncn2)c1)C1CC1`, the residual activity was found to be 97.2%.

With `Cc1nc2cc3nc(-c4cccs4)cnc3cc2n1C`, the residual activity was 88.3%.

For another test, the target named is MYLK (human) (UniProt Q15746). The description is as above. The settings on record: compound 0.5 µM; ATP 10 µM.
`Cn1cnc2cc3c(Nc4cccc(Br)c4)ncnc3cc21`: the residual activity worked out at 83.3%.

On to `O=C(Nc1cccc(Nc2cc(Nc3cccc(C(F)(F)F)c3)ncn2)c1)C1CC1`, for which the residual activity is 99%.

As to `Cc1nc2cc3nc(-c4cccs4)cnc3cc2n1C`, the residual activity was 97%.

A further test has as its target GRK7 (human) (UniProt Q8WTQ7). The description is as above. The settings on record: compound 0.5 µM; ATP 10 µM.
Consider `Cn1cnc2cc3c(Nc4cccc(Br)c4)ncnc3cc21`, for which the residual activity was determined as 106%.

For the molecule `O=C(Nc1cccc(Nc2cc(Nc3cccc(C(F)(F)F)c3)ncn2)c1)C1CC1`, the residual activity amounted to 99%.

With `Cc1nc2cc3nc(-c4cccs4)cnc3cc2n1C`, the residual activity was determined as 96.6%.

For another test, the target named is BLK (human) (UniProt P51451). Described as above. The note with it: compound 0.5 µM; ATP 10 µM.
Turning to `Cn1cnc2cc3c(Nc4cccc(Br)c4)ncnc3cc21`, the residual activity was determined as 81%.

For `O=C(Nc1cccc(Nc2cc(Nc3cccc(C(F)(F)F)c3)ncn2)c1)C1CC1`, the residual activity came out at 101%.

In the case of `Cc1nc2cc3nc(-c4cccs4)cnc3cc2n1C`, the residual activity was found to be 99.8%.

The target in another test is PNCK (human) (UniProt Q6P2M8). The description is as above. The note with it: compound 0.5 µM; ATP 10 µM.
Chain of PNCK (human) (Q6P2M8 whole entry, looked up): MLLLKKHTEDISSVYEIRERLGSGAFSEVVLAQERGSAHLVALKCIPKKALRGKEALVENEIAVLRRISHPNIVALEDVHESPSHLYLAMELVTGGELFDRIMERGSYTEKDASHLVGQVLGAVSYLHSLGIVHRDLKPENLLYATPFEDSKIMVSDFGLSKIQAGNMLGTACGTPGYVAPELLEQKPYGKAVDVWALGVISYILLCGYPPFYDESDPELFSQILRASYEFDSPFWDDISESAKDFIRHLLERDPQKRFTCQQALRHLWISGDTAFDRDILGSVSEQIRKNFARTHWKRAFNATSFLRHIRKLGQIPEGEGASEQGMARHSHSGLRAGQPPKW
In the case of `Cn1cnc2cc3c(Nc4cccc(Br)c4)ncnc3cc21`, the residual activity is 101%.

`O=C(Nc1cccc(Nc2cc(Nc3cccc(C(F)(F)F)c3)ncn2)c1)C1CC1`: the residual activity is 101%.

For `Cc1nc2cc3nc(-c4cccs4)cnc3cc2n1C`, the residual activity amounted to 102%.

The target of the next test is SIK2 (human) (UniProt Q9H0K1). The description is as above. The settings on record: compound 0.5 µM; ATP 10 µM.
Turning to `Cn1cnc2cc3c(Nc4cccc(Br)c4)ncnc3cc21`, the residual activity came to 101%.

For the molecule `O=C(Nc1cccc(Nc2cc(Nc3cccc(C(F)(F)F)c3)ncn2)c1)C1CC1`, the residual activity amounted to 89.4%.

Regarding `Cc1nc2cc3nc(-c4cccs4)cnc3cc2n1C`, the residual activity worked out at 112%.

In another test the target is EPHA1 (human) (UniProt P21709). Described as above. The note with it: compound 0.5 µM; ATP 10 µM.
With `Cn1cnc2cc3c(Nc4cccc(Br)c4)ncnc3cc21`, the residual activity worked out at 84.4%.

Take `O=C(Nc1cccc(Nc2cc(Nc3cccc(C(F)(F)F)c3)ncn2)c1)C1CC1`: the residual activity stood at 92.9%.

As to `Cc1nc2cc3nc(-c4cccs4)cnc3cc2n1C`, the residual activity was found to be 87.1%.

For a further test, the target named is AURKC (human) (UniProt Q9UQB9). The test is described as above. The settings on record: compound 0.5 µM; ATP 10 µM.
Chain of AURKC (human) (Q9UQB9 whole entry, looked up): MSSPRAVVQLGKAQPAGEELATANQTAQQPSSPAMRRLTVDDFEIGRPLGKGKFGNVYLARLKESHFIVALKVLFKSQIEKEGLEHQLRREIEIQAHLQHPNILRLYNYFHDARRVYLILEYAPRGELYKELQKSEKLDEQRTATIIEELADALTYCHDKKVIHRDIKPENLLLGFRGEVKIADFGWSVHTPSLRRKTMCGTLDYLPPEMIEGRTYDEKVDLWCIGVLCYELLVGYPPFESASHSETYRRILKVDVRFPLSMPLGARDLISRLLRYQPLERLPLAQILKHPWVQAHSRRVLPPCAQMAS
For the molecule `Cn1cnc2cc3c(Nc4cccc(Br)c4)ncnc3cc21`, the residual activity turned out to be 96.5%.

As to `O=C(Nc1cccc(Nc2cc(Nc3cccc(C(F)(F)F)c3)ncn2)c1)C1CC1`, the residual activity turned out to be 104%.

Consider `Cc1nc2cc3nc(-c4cccs4)cnc3cc2n1C`, for which the residual activity was 93.3%.

The target in another test is IKBKB (human) (UniProt O14920). Described as above. The settings on record: compound 0.5 µM; ATP 10 µM.
Chain of IKBKB (human) (O14920 whole entry, looked up): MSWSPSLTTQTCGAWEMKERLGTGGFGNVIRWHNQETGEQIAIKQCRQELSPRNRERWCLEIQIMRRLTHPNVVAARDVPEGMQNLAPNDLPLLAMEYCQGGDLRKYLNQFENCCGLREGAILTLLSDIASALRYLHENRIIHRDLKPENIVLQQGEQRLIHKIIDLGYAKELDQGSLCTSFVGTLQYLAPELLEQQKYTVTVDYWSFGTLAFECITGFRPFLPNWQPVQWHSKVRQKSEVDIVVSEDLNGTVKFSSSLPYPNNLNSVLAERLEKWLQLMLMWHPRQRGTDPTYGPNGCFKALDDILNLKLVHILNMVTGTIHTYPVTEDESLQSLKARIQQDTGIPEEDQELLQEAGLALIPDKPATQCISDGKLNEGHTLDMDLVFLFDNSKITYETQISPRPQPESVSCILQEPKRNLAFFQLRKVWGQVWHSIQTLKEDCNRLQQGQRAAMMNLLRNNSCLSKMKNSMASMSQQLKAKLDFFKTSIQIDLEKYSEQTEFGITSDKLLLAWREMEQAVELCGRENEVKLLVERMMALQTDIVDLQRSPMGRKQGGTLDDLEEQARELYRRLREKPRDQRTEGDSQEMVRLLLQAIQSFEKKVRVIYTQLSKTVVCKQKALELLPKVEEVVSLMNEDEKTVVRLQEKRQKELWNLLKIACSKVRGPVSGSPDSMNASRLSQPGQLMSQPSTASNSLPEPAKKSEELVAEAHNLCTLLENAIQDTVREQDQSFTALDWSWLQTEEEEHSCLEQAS
Turning to `Cn1cnc2cc3c(Nc4cccc(Br)c4)ncnc3cc21`, the residual activity is 104%.

Consider `O=C(Nc1cccc(Nc2cc(Nc3cccc(C(F)(F)F)c3)ncn2)c1)C1CC1`, for which the residual activity turned out to be 100%.

As to `Cc1nc2cc3nc(-c4cccs4)cnc3cc2n1C`, the residual activity was determined as 103%.

Another test concerns the target TGFBR1 (human) (UniProt P36897). Described as above. The settings on record: compound 0.5 µM; ATP 10 µM.
On to `Cn1cnc2cc3c(Nc4cccc(Br)c4)ncnc3cc21`, for which the residual activity stood at 97.6%.

On to `O=C(Nc1cccc(Nc2cc(Nc3cccc(C(F)(F)F)c3)ncn2)c1)C1CC1`, for which the residual activity amounted to 97.4%.

For the molecule `Cc1nc2cc3nc(-c4cccs4)cnc3cc2n1C`, the residual activity is 98.7%.

The target in the next test is CSNK2A1 (human) (UniProt P68400). Described as above. The note with it: compound 0.5 µM; ATP 10 µM.
Chain of CSNK2A1 (human) (P68400 whole entry, looked up): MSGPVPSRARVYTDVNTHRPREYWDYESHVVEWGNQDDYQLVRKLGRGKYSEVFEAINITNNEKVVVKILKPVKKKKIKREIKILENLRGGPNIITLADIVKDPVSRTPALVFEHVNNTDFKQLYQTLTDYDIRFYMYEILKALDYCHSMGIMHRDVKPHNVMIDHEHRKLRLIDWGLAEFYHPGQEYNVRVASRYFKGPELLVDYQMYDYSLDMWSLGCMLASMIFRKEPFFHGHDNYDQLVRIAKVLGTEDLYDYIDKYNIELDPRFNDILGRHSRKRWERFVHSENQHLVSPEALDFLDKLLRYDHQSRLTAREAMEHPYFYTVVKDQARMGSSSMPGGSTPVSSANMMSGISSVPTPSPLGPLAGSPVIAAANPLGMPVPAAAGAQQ
For `Cn1cnc2cc3c(Nc4cccc(Br)c4)ncnc3cc21`, the residual activity turned out to be 99%.

For `O=C(Nc1cccc(Nc2cc(Nc3cccc(C(F)(F)F)c3)ncn2)c1)C1CC1`, the residual activity amounted to 92.6%.

As to `Cc1nc2cc3nc(-c4cccs4)cnc3cc2n1C`, the residual activity was found to be 101%.

The next test has as its target LTK (human) (UniProt P29376). The description is as above. The note with it: compound 0.5 µM; ATP 10 µM.
For `Cn1cnc2cc3c(Nc4cccc(Br)c4)ncnc3cc21`, the residual activity was 77.9%.

Regarding `O=C(Nc1cccc(Nc2cc(Nc3cccc(C(F)(F)F)c3)ncn2)c1)C1CC1`, the residual activity worked out at 96.8%.

For the molecule `Cc1nc2cc3nc(-c4cccs4)cnc3cc2n1C`, the residual activity stood at 95.2%.

For another test, the target named is FLT3 (human) (UniProt P36888). Described as above. The note with it: compound 0.5 µM; ATP 10 µM.
In the case of `Cn1cnc2cc3c(Nc4cccc(Br)c4)ncnc3cc21`, the residual activity came to 33.4%.

For `O=C(Nc1cccc(Nc2cc(Nc3cccc(C(F)(F)F)c3)ncn2)c1)C1CC1`, the residual activity worked out at 97.9%.

As for `Cc1nc2cc3nc(-c4cccs4)cnc3cc2n1C`, the residual activity was 27.5%.

Another test deals with TGFBR2 (human) (UniProt P37173). The test is described as above. The note with it: compound 0.5 µM; ATP 10 µM.
In the case of `Cn1cnc2cc3c(Nc4cccc(Br)c4)ncnc3cc21`, the residual activity was 98.9%.

Take `O=C(Nc1cccc(Nc2cc(Nc3cccc(C(F)(F)F)c3)ncn2)c1)C1CC1`: the residual activity was 105%.

Consider `Cc1nc2cc3nc(-c4cccs4)cnc3cc2n1C`, for which the residual activity was found to be 89.2%.

Another test has as its target CSNK2A2 (human) (UniProt P19784). The description is as above. The note with it: compound 0.5 µM; ATP 10 µM.
For `Cn1cnc2cc3c(Nc4cccc(Br)c4)ncnc3cc21`, the residual activity came to 91.7%.

Regarding `O=C(Nc1cccc(Nc2cc(Nc3cccc(C(F)(F)F)c3)ncn2)c1)C1CC1`, the residual activity amounted to 94.9%.

As for `Cc1nc2cc3nc(-c4cccs4)cnc3cc2n1C`, the residual activity turned out to be 99%.
